What was measured:
Met kinase [1] = target: T1, Met kinase (Homo sapiens, UniProt P08581); assay: Met kinase inhibition, enzyme assay (flashplate method); format: biochemical; design: 6His (N); purchased Upstate 14-526; host or cells: Sf21 insect cells (S. frugiperda), baculovirus
Method: Flashplate Method (Met Kinase)
The test plates used are 96-well Flashplate® microtitre plates from Perkin Elmer (Cat. No. SMP200). The components of the kinase reaction described below are pipetted into the assay plate. The Met kinase and the substrate poly Ala-Glu-Lys-Tyr, (pAGLT, 6:2:5:1), are incubated for 3 hrs at room temperature with radioactively labelled ^33P-ATP in the presence and absence of test substances in a total volume of 100 μl. The reaction is terminated using 150 μl of a 60 mM EDTA solution. After incubation for a further 30 min at room temperature, the supernatants are filtered off with suction, and the wells are washed three times with 200 μl of 0.9% NaCl solution each time. The measurement of the bound radioactivity is carried out by means of a scintillation measuring instrument (Topcount NXT, Perkin-Elmer).
The full value used is the inhibitor-free kinase reaction. This should be approximately in the range 6000-9000 cpm. The pharmacological zero value used is staurosporin in a final concentration of 0.1 mM. The inhibitory values (IC50) are determined using the RS1_MTS program.
Kinase reaction conditions per well:
10 μl of substance to be tested in assay buffer with 10% of DMSO
10 μl of ATP (final concentration 1 μM cold, 0.35 μCi of ^33P-ATP)
50 μl of Met kinase/substrate mixture in assay buffer;
Target sequence in this assay (P08581 974-1390 limits assumed): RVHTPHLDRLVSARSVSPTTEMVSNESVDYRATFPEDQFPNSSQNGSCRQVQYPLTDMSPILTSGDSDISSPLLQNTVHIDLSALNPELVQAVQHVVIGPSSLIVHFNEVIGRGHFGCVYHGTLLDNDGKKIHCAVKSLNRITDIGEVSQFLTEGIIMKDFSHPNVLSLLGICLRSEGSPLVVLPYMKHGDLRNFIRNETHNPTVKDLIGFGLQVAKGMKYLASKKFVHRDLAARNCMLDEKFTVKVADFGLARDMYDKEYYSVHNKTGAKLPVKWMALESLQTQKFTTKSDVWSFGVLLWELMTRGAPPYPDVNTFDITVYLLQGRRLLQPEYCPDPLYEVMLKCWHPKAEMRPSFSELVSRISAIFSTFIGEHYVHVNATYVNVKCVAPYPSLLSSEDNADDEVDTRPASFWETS

Met kinase [2] = target: T1, Met kinase; assay: Met kinase inhibition, cell assay; format: cell-based
Target sequence in this assay (P08581 25-1390): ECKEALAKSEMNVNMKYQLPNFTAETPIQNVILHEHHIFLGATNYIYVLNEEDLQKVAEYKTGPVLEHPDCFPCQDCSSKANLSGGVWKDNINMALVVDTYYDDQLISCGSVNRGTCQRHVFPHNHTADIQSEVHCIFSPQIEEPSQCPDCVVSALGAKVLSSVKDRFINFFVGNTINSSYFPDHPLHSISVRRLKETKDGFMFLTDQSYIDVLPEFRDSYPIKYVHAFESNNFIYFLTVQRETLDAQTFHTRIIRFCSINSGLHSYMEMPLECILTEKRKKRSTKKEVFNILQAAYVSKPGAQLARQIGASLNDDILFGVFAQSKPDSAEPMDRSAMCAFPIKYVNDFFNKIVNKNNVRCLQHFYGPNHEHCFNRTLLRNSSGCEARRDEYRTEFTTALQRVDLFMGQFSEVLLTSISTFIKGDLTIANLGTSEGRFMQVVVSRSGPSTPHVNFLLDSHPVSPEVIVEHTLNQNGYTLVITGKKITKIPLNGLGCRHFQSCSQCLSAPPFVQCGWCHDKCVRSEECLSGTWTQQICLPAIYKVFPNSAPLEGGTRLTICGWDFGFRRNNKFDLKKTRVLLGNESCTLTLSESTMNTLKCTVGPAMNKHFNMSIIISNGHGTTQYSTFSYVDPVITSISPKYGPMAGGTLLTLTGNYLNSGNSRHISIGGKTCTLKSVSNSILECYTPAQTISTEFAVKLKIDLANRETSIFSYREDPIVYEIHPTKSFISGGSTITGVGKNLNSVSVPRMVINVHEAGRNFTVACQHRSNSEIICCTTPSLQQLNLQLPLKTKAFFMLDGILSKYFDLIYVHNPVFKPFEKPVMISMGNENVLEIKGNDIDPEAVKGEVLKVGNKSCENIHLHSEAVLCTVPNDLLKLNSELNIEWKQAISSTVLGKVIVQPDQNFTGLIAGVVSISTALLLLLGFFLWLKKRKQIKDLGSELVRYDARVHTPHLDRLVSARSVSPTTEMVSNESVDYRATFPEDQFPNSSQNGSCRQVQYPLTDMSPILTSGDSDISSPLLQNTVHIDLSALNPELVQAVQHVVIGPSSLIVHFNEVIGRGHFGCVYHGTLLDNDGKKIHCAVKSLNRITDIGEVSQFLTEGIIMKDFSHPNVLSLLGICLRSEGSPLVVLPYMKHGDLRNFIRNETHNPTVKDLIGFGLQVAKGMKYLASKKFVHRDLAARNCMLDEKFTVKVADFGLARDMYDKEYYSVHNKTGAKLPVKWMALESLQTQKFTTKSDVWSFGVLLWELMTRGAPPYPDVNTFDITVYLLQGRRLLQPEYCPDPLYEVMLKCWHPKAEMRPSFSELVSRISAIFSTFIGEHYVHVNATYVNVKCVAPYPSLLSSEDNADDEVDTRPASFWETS

SMILES	IC50 (Met kinase [1]) [nM]	IC50 (Met kinase [2]) [nM]
CCN1CCN(c2nc(-c3cccc(Cn4nc(-c5cc(F)cc(F)c5)ccc4=O)c3)no2)CC1 [Compound A48]	10 to 1000	
O=c1ccc(-c2cc(F)cc(F)c2)nn1Cc1cccc(-c2ncc(C3CCNCC3)s2)c1 [Compound A91, 6-(3,5-difluorophenyl)-2-[3-(5-piperidin-4-ylthiazol-2-yl)benzyl]-2H-pyridazin-3-one]	10 to 1000	
O=c1ccc(-c2cc(F)cc(F)c2)nn1Cc1cccc(-c2noc(NCCN3CCOCC3)n2)c1 [Compound A22]	10 to 1000	
CN1CCC(c2cnc(-c3cccc(Cn4nc(-c5cc(F)cc(F)c5)ccc4=O)c3)o2)CC1 [Compound A88, 6-(3,5-difluorophenyl)-2-{3-[5-(1-methylpiperidin-4-yl)oxazol-2-yl]benzyl}-2H-pyridazin-3-one]	10 to 1000	
COCCN1CCN(c2nc(-c3cccc(Cn4nc(-c5cc(F)cc(F)c5)ccc4=O)c3)no2)CC1 [Compound A50, 6-(3,5-Difluorophenyl)-2-(3-{5-[4-(2-methoxyethyl)-piperazin-1-yl]-1,2,4-oxadiazol-3-yl}benzyl)-2H-pyridazin-3-one]	10 to 1000	
CCNc1nc(-c2cccc(Cn3nc(-c4cc(F)cc(F)c4)ccc3=O)c2)no1 [Compound A11, 6-(3,5-difluorophenyl)-2-[3-(5-ethylamino-1,2,4-oxadiazol-3-yl)benzyl]-2H-pyridazin-3-one]	10 to 1000	
CN(C)CCCNc1nc(-c2cccc(Cn3nc(-c4cc(F)cc(F)c4)ccc3=O)c2)no1 [Compound A12, 6-(3,5-difluorophenyl)-2-{3-[5-(3-dimethylaminopropylamino)-1,2,4-oxadiazol-3-yl]benzyl}-2H-pyridazin-3-one]	10 to 1000	
CN1CCC(N(C)c2nc(-c3cccc(Cn4nc(-c5cc(F)cc(F)c5)ccc4=O)c3)no2)CC1 [Compound A46, 6-(3,5-difluorophenyl)-2-(3-{5-[methyl-(1-methylpiperidin-4-yl)-amino]-1,2,4-oxadiazol-3-yl}benzyl)-2H-pyridazin-3-one]	10 to 1000	
Cc1cnc(-c2cccc(Cn3nc(-c4cccc(Cl)c4)ccc3=O)c2)o1 [Compound A33]	10 to 1000	
CN1CCN(C(=O)c2nc(-c3cccc(Cn4nc(-c5cc(F)cc(F)c5)ccc4=O)c3)no2)CC1 [Compound A21, 6-(3,5-difluorophenyl)-2-{3-[5-(4-methylpiperazine-1-carbonyl)-1,2,4-oxadiazol-3-yl]benzyl}-2H-pyridazin-3-one]	10 to 1000	
O=c1ccc(-c2cc(F)cc(F)c2)nn1Cc1cccc(-c2noc(N3CCN(CCO)CC3)n2)c1 [Compound A111, 6-(3,5-difluorophenyl)-2-(3-{5-[4-(2-hydroxyethyl)piperazin-1-yl]-1,2,4-oxadiazol-3-yl}benzyl)-2H-pyridazin-3-one]		10 to 1000
CCOCCN1CCN(c2nc(-c3cccc(Cn4nc(-c5cc(F)cc(F)c5)ccc4=O)c3)no2)CC1 [Compound A123, 6-(3,5-Difluorophenyl)-2-(3-{5-[4-(2-ethoxyethyl)-piperazin-1-yl]-1,2,4-oxadiazol-3-yl}benzyl)-2H-pyridazin-3-one]		10 to 1000
CN1CCN(c2nc(-c3cccc(Cn4nc(-c5cc(F)cc(F)c5)ccc4=O)c3)no2)CC1 [Compound A20, 6-(3,5-difluorophenyl)-2-{3-[5-(4-methylpiperazin-1-yl)-1,2,4-oxadiazol-3-yl]benzyl}-2H-pyridazin-3-one]	10 to 1000	
Cc1nc(-c2cccc(Cn3nc(-c4cc(F)cc(F)c4)ccc3=O)c2)no1 [Compound A1, 6-(3,5-difluorophenyl)-2-[3-(5-methyl-1,2,4-oxadiazol-3-yl)benzyl]-2H-pyridazin-3-one]	10 to 1000	
COCCCN1CCN(c2nc(-c3cccc(Cn4nc(-c5cc(F)cc(F)c5)ccc4=O)c3)no2)CC1 [Compound A124, 6-(3,5-Difluorophenyl)-2-(3-{5-[4-(3-methoxypropyl)-piperazin-1-yl]-1,2,4-oxadiazol-3-yl}benzyl)-2H-pyridazin-3-one]		10 to 1000

Reference: US8435981B2, “2-(heterocyclylbenzyl)pyridazinone derivatives” (Merck Patent Gesellschaft mit Beschränkter Haftung, priority 2006, dated 2013)
